Molecules are shown by their SMILES. Where only a bound is given, the exact number is not on record here.

One may read the EC50 as the midpoint of the concentration-response curve. As a reminder, the IC50 is the concentration needed to halve the response being measured. A low value points to inhibition by little substance.

Test [1] deals with T1, human GHS receptor (Homo sapiens, UniProt Q92847). The test is described as follows: Ghrelin IP1 agonist assay (IP1 HTRF). Format: cell-based. Set-up: expressed in transfected cells; host or cells: HEK293s. The note with it: for Emax: 2 h, agonist effect as % maximal effect of GHRP-6 (5 μM), read-out: h IP1 ag %; for EC50: HEK293s cells stably expressing human GHS receptor, 2 hours at 37° C., read-out: h IP1 ag EC50. The gist of the method: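 Cells: HEK293s stably expressing human GHS receptor, in stimulation buffer containing 0.02% fatty acid free BSA.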
(In general: In TR-FRET formats the signal depends on donor and acceptor labels being close together.)

The target in test [2] is T1, human GHS receptor. The test is described as follows: h bind IC50 (binding assay, Table 1). The note with it: human receptor; Table 1.

T1 sequence (Q92847 whole entry): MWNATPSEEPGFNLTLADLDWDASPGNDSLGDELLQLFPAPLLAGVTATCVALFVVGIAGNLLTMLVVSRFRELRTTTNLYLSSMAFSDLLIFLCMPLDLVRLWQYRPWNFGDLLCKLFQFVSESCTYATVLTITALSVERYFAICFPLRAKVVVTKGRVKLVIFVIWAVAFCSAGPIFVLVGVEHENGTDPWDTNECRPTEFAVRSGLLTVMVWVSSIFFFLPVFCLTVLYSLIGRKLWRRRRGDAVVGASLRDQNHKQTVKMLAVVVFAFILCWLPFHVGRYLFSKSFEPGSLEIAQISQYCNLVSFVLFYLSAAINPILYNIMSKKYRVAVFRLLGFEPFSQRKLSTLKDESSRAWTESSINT

For `CS(=O)(=O)c1ccc2nc(NC(=O)NC(=O)c3ccccc3OS(=O)(=O)C(F)(F)F)sc2c1` [Example 137, N-[(6-Methylsulfonylbenzothiazol-2-yl)carbamoyl]-2-(trifluoromethylsulfonyloxy)benzamide], at human GHS receptor [1], the Emax came to 24.1% and the EC50 was 2320 nM. On human GHS receptor [2], this molecule had an IC50 of 1750 nM.
In the case of `CS(=O)(=O)c1ccc2nc(NC(=O)NC(=O)c3cc(S(N)(=O)=O)ccc3Cl)sc2c1` [Example 138, 2-Chloro-N-[(6-methylsulfonylbenzothiazol-2-yl)carbamoyl]-5-sulfamoyl-benzamide], on human GHS receptor [1], the Emax is 0% and the concentration giving a half-maximal response (EC50) was at least 25000 nM. Moreover, the IC50 at human GHS receptor [2] came out at 448 nM.
Turning to `O=C(NC(=O)c1ccccc1Cl)Nc1nc2ccc(S(=O)(=O)C3CCCNC3)cc2s1` (stereo not drawn) [Example 139, 2-Chloro-N-[[6-(3-piperidylsulfonyl)benzothiazol-2-yl]carbamoyl]benzamide], on human GHS receptor [1], the Emax is 46.7% and the EC50 stood at 27.3 nM. In addition, the IC50 at human GHS receptor [2] came to 107 nM.
For `CC(C)N1CCCC(S(=O)(=O)c2ccc3nc(NC(=O)NC(=O)c4ccccc4Cl)sc3c2)C1` (stereo not drawn) [Example 140, 2-Chloro-N-[[6-[(1-propan-2-yl-3-piperidyl)sulfonyl]benzothiazol-2-yl]carbamoyl]benzamide] the same measures were 42.5%, 62 nM and 289 nM.
`CCc1ccccc1C(=O)NC(=O)Nc1nc2ccc(S(C)(=O)=O)cc2s1` [Example 141, 2-Ethyl-N-[(6-methylsulfonylbenzothiazol-2-yl)carbamoyl]benzamide]: on human GHS receptor [1], the Emax came to 22.7% and the EC50 amounted to 184 nM. At human GHS receptor [2], the IC50 came out at 111 nM.
For `CCN1CCCC(S(=O)(=O)c2ccc3nc(NC(=O)NC(=O)c4ccccc4Cl)sc3c2)C1` (stereo not drawn) [Example 142, 2-Chloro-N-[[6-[(1-ethyl-3-piperidyl)sulfonyl]benzothiazol-2-yl]carbamoyl]benzamide] the same measures were 24.5%, 35.1 nM and 851 nM.
For `O=C(NC(=O)c1ccccc1Cl)Nc1nc2ccc(S(=O)(=O)CCCN3CCOCC3)cc2s1` [Example 146, 2-Chloro-N-[[6-(3-morpholin-4-ylpropylsulfonyl)benzothiazol-2-yl]carbamoyl]benzamide] the same measures were 40.7%, 30 nM and 269 nM.
Consider `O=C(NC(=O)c1ccccc1Cl)Nc1nc2ccc(S(=O)(=O)CCCCl)cc2s1` [Example 148, 2-Chloro-N-[[6-(3-chloropropylsulfonyl)benzothiazol-2-yl]carbamoyl]benzamide], for which, on human GHS receptor [1], the Emax turned out to be 17.7% and the EC50 amounted to 52.9 nM. At human GHS receptor [2], the IC50 stood at 830 nM.
In the same order, the values of `O=C(NC(=O)c1ccccc1Cl)Nc1nc2ccc(S(=O)(=O)CCCN3CCS(=O)(=O)CC3)cc2s1` [Example 150, 2-Chloro-N-[[6-[3-(1,1-dioxo-1,4-thiazinan-4-yl)propylsulfonyl]benzothiazol-2-yl]carbamoyl]benzamide] are 33.4%, 30.9 nM and 52.7 nM.
Consider `O=C(NC(=O)c1ccccc1Cl)Nc1nc2ccc(S(=O)(=O)CCCNCC3CC3)cc2s1` [Example 151, 2-Chloro-N-[[6-[3-(cyclopropylmethylamino)propylsulfonyl]benzothiazol-2-yl]carbamoyl]benzamide], for which, on human GHS receptor [1], the Emax turned out to be 74.3% and the EC50 is 2.23 nM. The molecule also yielded an IC50 at human GHS receptor [2] of 10.8 nM.
Take `O=C(NC(=O)c1ccccc1Cl)Nc1nc2ccc(S(=O)(=O)CCCN3CCCCC3)cc2s1` [Example 152, 2-Chloro-N-[[6-[3-(1-piperidyl)propylsulfonyl]benzothiazol-2-yl]carbamoyl]benzamide]: on human GHS receptor [1], the Emax was 46.6% and the EC50 was 23.9 nM. The IC50 at human GHS receptor [2] was 19.1 nM.

Values taken from patent US20120115845A1, “THERAPEUTIC AGENTS” (priority 2007, published 2012).
